The nature of the test: Degreasing effect on a soiled white painted metal plate (non-mechanical cleaning). Particulars: 1:40 dilution in water, poured over painted metal plate soiled with train engine grease, rinsed with tap water. How it is done: The degreasing effect of the test formulations was assessed on a white painted metal plate soiled uniformly with a tough-to-clean greasy soil collected from a train engine. The cleaning formulation (1:40 dilution in water) was applied simply by pouring it over the surface (non-mechanical cleaning). After a short time interval, the whole plate was rinsed with tap water and cleaning performance was assessed quantitatively. The results are tabulated below and depicted in FIG. 1A (for the respective cleaning formulations A, B, and C containing no NaOH) and FIG. 1B. (for the respective cleaning formulations D, E, and F containing 2% NaOH).

As for “C12/14 alkyl methylamine ethoxylate N-Oxide”, the “Cleaning Performance” value is “performs as well as the comparison hydrotrope”.

Values taken from US20250382549A1, “MULTIFUNCTIONAL N-OXIDE HYDROTROPES, CLEANING FORMULATIONS CONTAINING THEM AND USE THEREOF” (NOURYON CHEMICALS INTERNATIONAL B.V., priority 2022, published 2025).
